# Columns and labels:
# [1] = tested on: lateral root clock (pDR5:LUC); assay: Lateral root clock oscillation amplitude (pDR5:LUC reporter); format: in vivo, Arabidopsis thaliana; conditions: for amplitude of the lateral root clock relative to D15 treatment (rescue of D15 inhibition of lateral root initiation): roots treated with D15 for several days, then 10 μM apocarotenoid added, FIG. 4A
# Arabidopsis thaliana = assay: Root phenotyping: primary root growth, lateral root capacity/branching, lateral root primordia; format: in vivo
# Arabidopsis tissue = assay: Extraction, derivatization and HPLC-MS analysis of apocarotenoid levels in plant tissue upon D15 treatment; format: in vivo, Arabidopsis thaliana; conditions: D15 treated plants, whole plant; FIG. 2B
# CCD8 = molecular target: T1, CCD8 (Arabidopsis thaliana, UniProt Q8VY26); conditions: stated as known; cited from earlier work
# T1 sequence (Q8VY26 57-570): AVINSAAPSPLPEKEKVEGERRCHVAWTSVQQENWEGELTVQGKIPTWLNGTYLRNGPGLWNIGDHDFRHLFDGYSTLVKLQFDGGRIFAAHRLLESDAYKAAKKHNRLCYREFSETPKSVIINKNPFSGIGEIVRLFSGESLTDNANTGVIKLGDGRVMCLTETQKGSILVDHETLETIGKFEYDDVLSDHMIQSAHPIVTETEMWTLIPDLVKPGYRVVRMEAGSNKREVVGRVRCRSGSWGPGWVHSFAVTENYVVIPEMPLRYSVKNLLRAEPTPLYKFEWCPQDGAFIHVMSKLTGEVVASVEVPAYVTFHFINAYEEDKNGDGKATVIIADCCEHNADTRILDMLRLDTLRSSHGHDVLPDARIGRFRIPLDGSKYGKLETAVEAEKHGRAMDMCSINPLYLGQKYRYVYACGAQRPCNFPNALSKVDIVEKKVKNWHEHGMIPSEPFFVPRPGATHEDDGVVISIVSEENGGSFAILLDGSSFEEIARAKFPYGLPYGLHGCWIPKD
# Arabidopsis roots = assay: Merocyanine aldehyde RBP reporter fluorescence in Arabidopsis roots; format: in vivo, Arabidopsis thaliana; conditions: D15 treatment
# [2] = co-treatment with 500 nM Apo14 and D15, FIG. 4B
# [3] = co-treatment with 1 μM retinal and 125 μM D15, FIG. 4C
molecule,measurement,setting,value
"CC1=C(/C=C/C(C)=C/C=C/C(C)=C/C=C/C=O)C(C)(C)CCC1 [Apo14, apo-14-carotenal]",amplitude of the lateral root clock relative to D15 treatment (rescue of D15 inhibition of lateral root initiation),[1],significantly increased
same,rescue of D15 inhibition of lateral root development (lateral root capacity),Arabidopsis thaliana; [2],fully rescue
same,rescue of D15 inhibition of primary root growth,Arabidopsis thaliana; [2],fully rescue
"CC1=C(/C=C/C(C)=C/C=C/C(C)=C/C=C/C=C(C)/C=C/C=O)C(C)(C)CCC1 [Apo-10-carotenal, apo-10-carotenal]",amplitude of the lateral root clock relative to D15 treatment (rescue of D15 inhibition of lateral root initiation),[1],partially rescue
CC1=C(/C=C/C(C)=C/C=C/C(C)=C/C=C/C=C(\C)C=O)C(C)(C)CCC1 [apo-12-carotenal],amplitude of the lateral root clock relative to D15 treatment (rescue of D15 inhibition of lateral root initiation),[1],partially rescue
"CC1=C(/C=C/C(C)=C/C=C/C(C)=C/C=O)C(C)(C)CCC1 [retinal, apo-16-carotenal]",amplitude of the lateral root clock relative to D15 treatment (rescue of D15 inhibition of lateral root initiation),[1],significantly increased
same,rescue of D15 inhibition of lateral root development (lateral root branching),Arabidopsis thaliana; [3],fully rescue
same,rescue of D15 inhibition of primary root growth,Arabidopsis thaliana; [3],fully rescue
same,primary root length,"Arabidopsis thaliana; retinal alone, absence of D15",did not affect
same,number of lateral root primordia,"Arabidopsis thaliana; retinal alone, absence of D15, FIG. 4D",significantly increase
N-(4-fluorobenzyl)-methoxycinnamic hydroxamic acid [D15],amplitude of oscillations in pDR5:LUC marker line,"[1]; D15-treated plants, FIG. 3",significantly decreased
same,root growth and lateral root organogenesis,Arabidopsis thaliana; D15 treatment,defects
same,levels of more hydrophilic apocarotenoids such as beta-cyclocitral and beta-ionone,Arabidopsis tissue,did not affect
same,levels of retinal as well as the related apocarotenoids,Arabidopsis tissue,reduced
same,CCD8 inhibition,CCD8,can inhibit
same,merocyanine aldehyde fluorescence in the root meristem,Arabidopsis roots,reduced
same,number of merocyanine aldehyde pulses,"Arabidopsis roots; elongation and differentiation zones, FIG. 1E",significantly reduced
